Experimental data as given in US20120010075A1 (priority 2009, published 2012).
Like-named read-outs stand apart in the source and are kept apart here.

Key:
[1] = system: Phytophthora infestans; format: in vivo, Phytophthora infestans on tomato (Outdoor Girl); conditions: no hydrazone
[2] = system: Leptosphaeria nodorum (LEPTNO); assay: In vitro fungitoxicity of hydrazones with and without copper towards Leptosphaeria nodorum (Example 26); format: cell-based; conditions: 72 h at 25° C.; for inhibition of growth at 0.05 µg/mL: Parastagonospora nodorum, 72 h, copper-minus medium, read-out: LEPTNO % Inhn. Minus Copper Observed
[3] = system: Phytophthora infestans; format: in vivo, Phytophthora infestans on tomato; conditions: applied 24 h before inoculation, assessed 7 days after inoculation
[4] = system: Phytophthora capsici; assay: In vitro fungitoxicity of hydrazones with and without copper towards Phytophthora capsici (Example 28, Table 3); format: cell-based; conditions: 48 h; for % Inhn Plus copper Observed: copper-plus AS medium (CuCl2, 50 μM); for inhibition of growth at 0.039 µg/mL / inhibition of growth at 0.05 µg/mL: Phytophthora capsici, copper-minus AS medium, read-out: % Inhn Minus copper Observed
[5] = system: Ustilago maydis; assay: In vitro fungitoxicity of hydrazones with and without copper towards Ustilago maydis (Example 29, Table 4); format: cell-based; conditions: 1 μg/mL, 48 h; for % Inhn. Plus copper Observed: copper-plus medium (CuCl2, 10 μM); for inhibition of growth at 1 µg/mL: Mycosarcoma maydis, copper-minus medium, read-out: % Inhn. Minus copper Observed
[6] = system: Septoria tritici isolate USA-184; assay: In vitro fungitoxicity of hydrazones with and without copper towards Septoria tritici (Example 30, Table 5); format: cell-based; conditions: Zymoseptoria tritici, 0.05 μg/mL
[7] = compound 0.05 μg/mL, copper-plus medium (CuCl2.2H2O)
[8] = hydrazone 50 ppm + 50 μM CuCl2.2H2O, tomato
[9] = Colby formula, CuCl2, read-out: % Inhibition Plus copper Predicted
[10] = copper-minus medium, 90 h, read-out: % Inhibition Minus copper Observed
[11] = copper-plus medium CuCl2, 90 h, read-out: % Inhibition Plus copper Observed

Structure (SMILES) | inhibition of growth at 0.05 µg/mL ([2]; compound 0.05 μg/mL) | LEPTNO % Inhn. Plus Copper Observed [2, 7] | TLB % Control [3, 8] | melting point | % Inhn Plus copper Observed ([4]; 0.050 μg/mL) | inhibition of growth at 0.05 µg/mL ([4]; 0.050 μg/mL) | other results
O.O.O.O.O.O=S(=O)([O-])[O-].[Cu+2] [CuSO4, CuSO4.5H2O, reference compound] |  |  |  |  |  |  | % Control of Tomato Late Blight ([1]; CuSO4 10 μM alone): 1.7%; % Control of Tomato Late Blight ([1]; CuSO4 50 μM alone): 4.8%; % Control of Tomato Late Blight ([1]; CuSO4 200 μM alone): 49.7%; % Control of Tomato Late Blight ([1]; CuSO4 400 μM alone): 76.0%; % Control of Tomato Late Blight ([1]; CuSO4 800 μM alone): 82.9%
Cc1cc(C)cc(C(=O)N/N=C/c2cc(Cl)cc(Cl)c2O)c1 [Example 102] | 0% | 93.4% | 74.0% | 207 to 209 °C |  |  | % Inhn Plus copper Observed ([4]; 0.039 μg/mL): 93.6%; inhibition of growth at 0.039 µg/mL ([4]; 0.039 μg/mL): 15.7%
O=C(N/N=C/c1cc(Br)cc(Br)c1O)c1ccccc1 [Example 121] | 0% | 98.3% | 88.1% |  | 90.4% | 0% | % Inhn. Plus copper Observed [5]: 96.9%; inhibition of growth at 1 µg/mL [5]: 0%; inhibition at 0.05 µg/mL [6, 9]: 9.7%; inhibition at 0.05 µg/mL [6, 10]: 9.7%; inhibition at 0.05 µg/mL [6, 11]: 96.5%
C/C(=N\NC(=O)Cc1ccc(C(F)(F)F)cc1)c1cc(Cl)cc(Cl)c1O [Example 129] | 5.5% | 97.8% | 49.0% | 207 to 212 °C |  |  | % Inhn Plus copper Observed ([4]; 0.039 μg/mL): 96.3%; inhibition of growth at 0.039 µg/mL ([4]; 0.039 μg/mL): 10.6%
Cc1ccccc1C(=O)N/N=C/c1cc(Cl)cc(Br)c1O [Example 162] | 0% | 96.9% | 94.0% |  | 91.6% | 5.2% | % Inhn. Plus copper Observed [5]: 96.4%; inhibition of growth at 1 µg/mL [5]: 8.8%; inhibition at 0.05 µg/mL [6, 9]: 36.3%; inhibition at 0.05 µg/mL [6, 10]: 36.3%; inhibition at 0.05 µg/mL [6, 11]: 97.1%
O=C(N/N=C/c1cc(Cl)ccc1O)c1ccccc1O [Example 177] | 12.5% | 95.2% | 91.0% |  | 92.4% | 0% | % Inhn. Plus copper Observed [5]: 33.3%; inhibition of growth at 1 µg/mL [5]: 0%; inhibition at 0.05 µg/mL [6, 9]: 0.2%; inhibition at 0.05 µg/mL [6, 10]: 0.2%; inhibition at 0.05 µg/mL [6, 11]: 95.2%
O=C(N/N=C/c1ccccc1O)c1cc(Cl)ccc1Br [Example 218] | 0% | 92.5% | 70.9% | 222 to 225 °C | 93.3% | 10.7% | 
O=C(N/N=C/c1cc(Cl)cc(Cl)c1O)c1cc(Cl)ccc1Br [Example 219] | 34.5% | 97.9% | 68.4% | 228 to 231 °C | 90.6% | 15.3% | 
O=C(N/N=C/c1cc(Br)cc(Br)c1O)c1cc(Cl)ccc1Br [Example 220] | 0% | 95.3% | 89.1% | 215 to 218 °C | 85.5% | 13.4% | 
O=C(N/N=C/c1ccccc1O)c1cc(I)ccc1Br [Example 221] | 0% | 92.4% | 66.0% | 202 to 205 °C | 92.2% | 12% | 
O=C(N/N=C/c1cc(Cl)cc(Cl)c1O)c1cc(I)ccc1Br [Example 222] | 0% | 94.5% | 67.3% | 201 to 219 °C | 76.8% | 11.3% | 
O=C(N/N=C/c1cc(Br)cc(Br)c1O)c1cc(I)ccc1Br [Example 223] | 26.9% | 97.2% | 54.0% | 215 to 216 °C | 51.3% | 2.5% | 
O=C(N/N=C/c1ccccc1O)c1cc(I)ccc1Cl [Example 224] | 0% | 91.0% | 67.3% | 222 to 226 °C | 93.3% | 6.2% | 
O=C(N/N=C/c1cc(Cl)cc(Cl)c1O)c1cc(I)ccc1Cl [Example 225] | 0% | 96.6% | 78.2% | 198 to 201 °C | 82.8% | 11.4% | 
O=C(N/N=C/c1cc(Br)cc(Br)c1O)c1cc(I)ccc1Cl [Example 226] | 0% | 94.5% | 71.0% | 205 to 212 °C | 62.1% | 2.3% | 
Cc1ccc(C(=O)N/N=C/c2ccccc2O)c(Br)c1 [Example 227] | 5% | 95.0% | 52.7% | 86 to 122 °C | 93.4% | 1.7% | 
Cc1ccc(C(=O)N/N=C/c2cc(Cl)cc(Cl)c2O)c(Br)c1 [Example 228] | 2.6% | 97.0% | 68.4% | 240 to 242 °C | 86.9% | 10% | 
Cc1ccc(C(=O)N/N=C/c2cc(Br)cc(Br)c2O)c(Br)c1 [Example 229] | 6% | 98.0% | 70.9% | 258 to 261 °C | 89.1% | 1.6% | 
O=C(N/N=C/c1cc(C(F)(F)F)cc(Cl)c1O)c1ccccc1O [Example 329] |  |  |  | 258 to 260 °C |  |  | inhibition of growth at 0.05 µg/mL ([2]; test compound Concn. 0.05 μg/mL): 14%; LEPTNO % Inhn. Plus Copper Observed ([2]; copper-plus medium (CuCl2 10 μM), test compound Concn. 0.05 μg/mL): 93.5%; TLB % Control ([3]; hydrazone 50 ppm with 50 μM CuCl2.2H2O, tomato late blight): 99.0%; % Inhn. Plus copper Observed [5]: 41.8%; inhibition of growth at 1 µg/mL [5]: 16.2%; inhibition at 0.05 µg/mL [6, 9]: 14.9%; inhibition at 0.05 µg/mL [6, 10]: 14.9%; inhibition at 0.05 µg/mL [6, 11]: 55.1%
